Results taken from US10787477B2, “Solid form of 4′-thio-2′-fluoronucleoside phosphamide compound and preparation method therefor and use thereof” (SICHUAN KELUN-BIOTECH BIOPHARMACEUTICAL CO., LTD., priority 2016, dated 2020).
In brackets after ≈: the same amount, converted by molar mass.

What was measured:
[1] = Drug excretion experiment in mice (radioactivity recovery in urine and feces); type: in vivo, ICR mice
Description: Crystalline form A having a radioisotope ([^14C] crystalline form A) is formulated as a suspension in 0.5% sodium carboxymethylcellulose (CMC-Na), and ICR mice were administered by single gavage at a dose of 117 μCi/4.08 mg/kg [^14C] crystalline form A. The absorption and excretion characteristics of crystalline form A were examined by measuring the radioactivity recovery in urine and feces.

[2] = Equilibrium solubility study in deionized water; type: physicochemical; details: for crystal transformation (XRPD of the solid): dispersed in water for 24 hours
Description: About 2.0 to 5.0 mg of each of crystalline form A, crystalline form B and crystalline form D of the compound of Formula (I) was weighed, added to a 3 ml vial, and added with 1.0 ml of deionized water. The resulting suspension was then placed in a rotary incubator (rotation speed was 25 rpm), and equilibrated in a biochemical incubator at 25° C. for 24 hours before 0.8 ml of the suspension was taken. The suspension was centrifuged (6000 rpm, 15 minutes), the supernatant was detected by HPLC for solubility, and the XRPD pattern of the solid was detected.

[3] = Solid state stability at 40° C./75% RH; type: physicochemical; details: open container, 8 days
Description: A suitable amount of crystalline form A of the compound of Formula (I) was weighed as a test sample, and it was left in an open container for 8 days under conditions of 40° C./75% RH (RH means relative humidity). The XRPD pattern of the test sample after the treatment was detected, and the purity was measured by HPLC.

Light experiment = type: physicochemical; details: light intensity of 4500 1×, 25° C., RH 25%
Description: (§1) Crystalline form A of the compound of Formula (I) was placed under the conditions of a light intensity of 4500 1×, 25° C., and RH 25% for 30 days, and samples were taken on Day 0, 5, 11 and 30, respectively, to observe changes in the properties of the samples. The specific optical rotation was measured with a polarimeter, the loss on drying was measured, and the total impurity content was measured by HPLC.

[4] = High temperature experiment; type: physicochemical; details: 60° C.
Description: as §1, with “was allowed to stand at a high temperature” for “was placed under the conditions”, “of 60° C.” for “of a light intensity of 4500 1×, 25° C., and RH 25%”, “taken at” for “taken on”, “5, 10,” for “5, 11”

High humidity experiment = type: physicochemical; details: 25° C. and RH 75%
Description: as §1, with “under a high humidity condition” for “under the conditions”, “of” for “of a light intensity of 4500 1×,”, “25° C.” for “25° C.,”, “RH 75%” for “RH 25%”, “taken at” for “taken on”, “5, 10,” for “5, 11”

[5] = Stability relationship (slurry of crystalline forms in water pre-saturated with form A); type: physicochemical; details: slurried in H2O pre-saturated with crystalline form A, room temperature, about 4 days
Description: An equal weight of each of crystalline forms A, B and D (8 mg each) was weighed and respectively added to a H2O solution (0.3 ml) pre-saturated with a sample of crystalline form A at room temperature, and the resulting suspension was slurried at room temperature for about 4 days before isolation of the solid. The wet and dry samples were respectively subjected to XRPD pattern detection.

[6] = Pharmacokinetic experiment in mice; type: in vivo, ICR mice; details: single gavage
Description: Crystalline form A of the compound of Formula (I) was formulated as a suspension in 0.5% sodium carboxymethylcellulose (CMC-Na), and ICR mice were administered by single gavage to investigate the pharmacokinetic characteristics. The single gavage doses were 2 mg/kg, 4 mg/kg and 8 mg/kg, respectively.
The pharmacokinetic parameters were each calculated according to the concentration-time curve of metabolite I in plasma.

[7] = Pharmacokinetic experiment in beagle dogs; type: in vivo; details: single gavage
Description: Crystalline form A of the compound of Formula (I) was formulated as a suspension in 0.5% CMC-Na, and administered by single gavage to beagle dogs. The single gavage doses were 0.1 mg/kg, 0.2 mg/kg and 0.4 mg/kg, respectively.

[8] = inferred from urine radioactivity recovery

CC(C)OC(=O)[C@H](C)N[P@](=O)(OC[C@H]1S[C@@H](n2ccc(N)nc2=O)[C@@H](F)[C@@H]1O)Oc1ccccc1 [[^14C] crystalline form A]
radioactivity recovery in urine ([1]; single gavage 117 μCi/4.08 mg/kg, within 0 to 120 hours): 78.7%
radioactive substances excreted in urine and feces, of the administered amount ([1]; single gavage, within 48 hours after administration): 84.5%

CC(C)OC(=O)[C@H](C)N[P@](=O)(OC[C@H]1S[C@@H](n2ccc(N)nc2=O)[C@@H](F)[C@@H]1O)Oc1ccccc1 [crystalline form A, (S)-isopropyl 2-(((S)-(((2R,3S,4S,5R)-5-(4-amino-2-oxopyrimidin-1(2H)-yl)-4-fluoro-3-hydroxytetrahydrothiophen-2-yl)methoxy)(phenoxy)phosphoryl)amino)propanoate]
solubility at 24 h ([2]; deionized water, 25 °C, water, thermodynamic from solid, deionized water, after 24 hours, HPLC): ~1000 µg/mL (≈ 1880 µM)
crystal transformation (XRPD of the solid) ([2]; 25° C.): did not undergo crystal transformation
crystal transformation (XRPD) [3]: did not undergo crystal transformation
relative purity of the sample (HPLC) [3]: 99.9%
appearance (Light experiment; 30 days): no change in the appearance
variation in the specific optical rotation (Light experiment; Day 0 to Day 30): ≤ 3 °
loss on drying % (Light experiment; different time points): ≤ 1.0%
total impurity content detected by HPLC (Light experiment; different time points): remained substantially unchanged
appearance ([4]; 30 days): no change in the appearance
variation in the specific optical rotation ([4]; Day 0 to Day 30): ≤ 2 °
loss on drying % ([4]; different time points): ≤ 1.07%
total impurity content detected by HPLC ([4]; different time points): remained substantially unchanged
appearance (High humidity experiment; 30 days): no change in the appearance
variation in the specific optical rotation (High humidity experiment; Day 0 to Day 30): ≤ 1 °
loss on drying % (High humidity experiment; different time points): ≤ 1.0%
total impurity content detected by HPLC (High humidity experiment; different time points): remained substantially unchanged
stability relationship / conversion of crystalline form (XRPD) [5]: more stable at room temperature
metabolism upon entering the body [6]: rapidly metabolized as pharmacologically active metabolite I
metabolism upon entering the body [7]: rapidly metabolized as pharmacologically active metabolite I
absolute bioavailability by intragastric administration [1, 8]: above 78.7%
proportion of the drug ingredient absorbed into the blood by oral administration [1, 8]: at least 78.7%

CC(C)OC(=O)[C@H](C)N[P@](=O)(OC[C@H]1S[C@@H](n2ccc(N)nc2=O)[C@@H](F)[C@@H]1O)Oc1ccccc1 [crystalline form B, (S)-isopropyl 2-(((S)-(((2R,3S,4S,5R)-5-(4-amino-2-oxopyrimidin-1(2H)-yl)-4-fluoro-3-hydroxytetrahydrothiophen-2-yl)methoxy)(phenoxy)phosphoryl)amino)propanoate]
solubility in water ([2]; deionized water, 25° C., after 24 hours, HPLC): ~1.8 mg/mL (≈ 3390 µM)
crystal transformation (XRPD of the solid) ([2]; 25° C.): did not undergo crystal transformation
stability relationship / conversion of crystalline form (XRPD) [5]: converted to crystalline form A

CC(C)OC(=O)[C@H](C)N[P@](=O)(OC[C@H]1S[C@@H](n2ccc(N)nc2=O)[C@@H](F)[C@@H]1O)Oc1ccccc1 [crystalline form D, (S)-isopropyl 2-(((S)-(((2R,3S,4S,5R)-5-(4-amino-2-oxopyrimidin-1(2H)-yl)-4-fluoro-3-hydroxytetrahydrothiophen-2-yl)methoxy)(phenoxy)phosphoryl)amino)propanoate]
crystal transformation (XRPD of the solid) ([2]; 25° C.): underwent crystal transformation
stability relationship / conversion of crystalline form (XRPD) [5]: converted to crystalline form A
